These results are taken from article PMC8791477, “Evaluation of SARS-CoV-2 entry, inflammation and new therapeutics in human lung tissue cells” (PLoS Pathogens, 2022).

Structures can show the parent of a compound that is named as a salt. Bounds are passed on as bounds.

Series [1] is described as follows: in vitro. As to conditions: African green monkey.
Series [2] in a line: in vitro. As to conditions: human, CC50 HLT.
Series [3] deals with HLT cells. As to conditions: for CC50: read-out: CC50 HLT, absence of virus.
Series [4] concerns VeroE6 cells. As to conditions: read-out: CC50 Vero E6; absence of virus.
Series [5] has as its system IL-6 and CXCL10 expression. In words: Immunomodulatory capacity: IL-6 and CXCL10 in LPS + IFN-γ stimulated HLT myeloid cells. The conditions noted are these: 20μM, LPS 50 ng/ml + IFN-γ 100 ng/ml, 20h. In kind it is cell-based, human. The method, then:
HLT cells were cultured in a round-bottom 96-well plate containing 20 μM of cepharanthine, ergoloid, ciclesonide, hydroxychloroquine, ivermectin, or camostat mesylate alone or in combination with the stimuli LPS (50 ng/ml) and IFN-γ (100 ng/ml). For each patient, a negative control, cells treated with only medium, and a positive control, cells incubated in the presence of LPS and IFN-γ, were included. Immediately, brefeldin A (BD Biosciences) and monensin (BD Biosciences) were added to cells and cultured overnight at 37°C in 5% CO2. Next day, cellular suspensions were stained with the following antibodies: anti-CD11b (FITC, BioLegend), anti-CD69 (PE-CF594, BD Biosciences), anti-CD14 (APC-H7, BD Biosciences), anti-EpCAM (APC, BioLegend), anti-CD3 (BV650, BD Biosciences), anti-CD45 (BV605, BioLegend), and anti-HLA-DR (BV421, BioLegend). Cells were subsequently fixed and permeabilized using the Cytofix/Cytoperm kit (BD Biosciences) and intracellularly stained with anti-IL-6 (PE-Cy7, BioLegend), and anti-CXCL10 (PE, BioLegend). Cell viability was determined using an AQUA viability dye for flow cytometry (LIVE/DEAD fixable AQUA, Invitrogen). After fixation with PBS 2% PFA, cells were acquired in an LSR Fortessa (BD Biosciences), and data were analyzed using the FlowJo v10.6.1 software (TreeStar).

The subject of series [6] is ACE2 expression. In words: Modulation of ACE2 expression in enriched AT-II cells of HLT (flow cytometry). In kind it is cell-based, human. The conditions noted are these: 20h; for ACE2 expression after anti-inflammatory drugs (in words): 100μM to 0.8μM; for ACE2 expression in enriched AT-II cells after immune stimuli (in words): IL-1β 10 ng/ml, IL-10 and GM-CSF 100 ng/ml, IFN 100 U/ml. Here is the method:
VeroE6 and lung cells were incubated with five-fold serial dilutions of selected anti-inflammatory compounds (ranging from 100μM to 0.8μM) for 20h. […] For determination of ACE2 expression, the following surface staining antibodies were used: primary goat anti-ACE2 (R&D Systems), anti-CD45 (AF700, BioLegend), anti-EpCAM (APC, BioLegend), and anti-HLA-DR (BV421, BioLegend). For ACE2 detection, cells were then stained with secondary donkey anti-goat IgG (PE, R&D Systems) for 30 min at 4°C. A Fluorescent Minus One control (FMO) without primary anti-ACE2 antibody was used as a control. Cell viability was determined using an AQUA viability dye for flow cytometry (LIVE/DEAD fixable AQUA, Invitrogen). After fixation with PBS 2% PFA, cells were acquired in an LSR Fortessa (BD Biosciences) and analyzed using the FlowJo v10.6.1 software (TreeStar).

The test system of series [7] is COVID-19 patients. The conditions noted are these: cited from earlier work.

`C[C@]1(Cn2ccnn2)[C@H](C(=O)O)N2C(=O)C[C@H]2S1(=O)=O` [Tazobactam]: the CC50 in series [1] (CC50 Vero E6, absence of virus) is above 100 µM; in series [2] (absence of virus) it was above 100 µM.

`CCCCCCCCCCCC(=O)OCC(O)CO` (stereo not drawn) [Monolaurin]: the CC50 in series [3] and in series [4] was above 100 µM throughout.

Ergoloid mesylates: the “cell toxicity in HLT cells” value in series [3] (20 μM, 48h) was above 60%. The results for the CC50 in series [3] and in series [4] were around 100 µM and 18.7 µM, respectively. For the same molecule, in series [5], the “expression of cytokines in CD11b+CD14+ myeloid cells (in words)” value is “significantly reduced the expression of cytokines”.

`CCCCCCCCCCCC(=O)O` [Lauric acid]: the CC50 in series [3] and in series [4] was above 100 µM in each case.

Consider `C[C@]12CCC(=O)C=C1CC[C@@H]1[C@@H]2[C@@H](O)C[C@@]2(C)[C@H]1CC[C@]2(O)C(=O)CO` [Cortisol], for which the “ACE2 expression after anti-inflammatory drugs (in words)” value in series [6] is on record as “no effect on ACE2 expression”. Moreover, the CC50 in series [1] (CC50 Vero E6, absence of virus) was above 100 µM; in series [2] (absence of virus) it was above 100 µM.

For GM-CSF, the “ACE2 expression in enriched AT-II cells after immune stimuli (in words)” value (shortened to “ACE2 expression in enriched AT-II cells”) in series [6] is reported as “did not impact ACE2 protein production”.

Regarding `Cc1ccc(-c2cc(C(F)(F)F)nn2-c2ccc(S(N)(=O)=O)cc2)cc1` [Celecoxib], the CC50 in series [1] (CC50 Vero E6, absence of virus) is 13 µM; in series [2] (absence of virus), around 100 µM.

In the case of `CC(C)C(=O)OCC(=O)[C@@]12O[C@H](C3CCCCC3)O[C@@H]1C[C@H]1[C@@H]3CCC4=CC(=O)C=C[C@]4(C)[C@H]3[C@@H](O)C[C@@]12C` [Ciclesonide], the CC50 in series [1] (CC50 Vero E6, absence of virus) was above 100 µM; in series [2] (absence of virus), above 100 µM. In series [5], the “expression of CXCL10 in CD11b+CD14- myeloid cells (in words)” value is on record as “induced CXCL10 secretion”.

Turning to `COc1ccc2cc1Oc1ccc(cc1)C[C@H]1c3c(cc4c(c3Oc3cc5c(cc3OC)CCN(C)[C@@H]5C2)OCO4)CCN1C` [Cepharanthine], the CC50 in series [3] is 16.1 µM; in series [1] (CC50 Vero E6, absence of virus), 22.3 µM; in series [4], 22.4 µM; in series [2] (absence of virus) it was 13.8 µM. Besides, the “expression of IL-6 in CD11b+CD14+ myeloid cells (in words)” value in series [5] is on record as “reduced IL-6 production”.

`CC(C)[C@H](N)C(=O)OCCOCn1cnc2c(=O)[nH]c(N)nc21` [Valaciclovir]: the CC50 in series [1] (CC50 Vero E6, absence of virus) was above 100 µM; in series [2] (absence of virus), above 100 µM.

As to `CC(C)Cc1ccc(C(C)C(=O)O)cc1` (stereo not drawn) [Ibuprofen], the “ACE2 expression after anti-inflammatory drugs (in words)” value in series [6] is recorded as “no effect on ACE2 expression”. Moreover, the CC50 in series [1] (CC50 Vero E6, absence of virus) was above 100 µM; in series [2] (absence of virus), above 100 µM.

For `O=c1c(O)c(-c2ccc(O)c(O)c2)oc2cc(O)cc(O)c12` [Quercetin], the CC50 in series [1] (CC50 Vero E6, absence of virus) is above 100 µM; in series [2] (absence of virus), above 100 µM.

Regarding `NC(=O)[C@@H]1CCCN1C(=O)[C@H](Cc1c[nH]cn1)NC(=O)[C@@H]1CCC(=O)N1` [Protilerin], the CC50 in series [3] and in series [4] was above 100 µM throughout.

For `CC1=C(CC(=O)O)c2cc(F)ccc2/C1=C\c1ccc([S+](C)[O-])cc1` (stereo not drawn) [Sulindac], the CC50 is above 100 µM in series [1] (CC50 Vero E6, absence of virus) and above 100 µM in series [2] (absence of virus).

As for `CC1(C)Cc2c(-c3ccccc3)c(-c3ccc(Cl)cc3)c(CC(=O)O)n2C1` [Licofelone], the CC50 in series [1] (CC50 Vero E6, absence of virus) was above 100 µM; in series [2] (absence of virus), around 53.6 µM.

With `Oc1ccc(CC2NCCc3cc(O)c(O)cc32)cc1` (stereo not drawn) [Higenamine, Higenamine hydrochloride], the CC50 in series [1] (CC50 Vero E6, absence of virus) is above 100 µM; in series [2] (absence of virus) it was above 100 µM.

Turning to `C[C@]12C=CC(=O)C=C1CC[C@@H]1[C@@H]2C(=O)C[C@@]2(C)[C@H]1CC[C@]2(O)C(=O)CO` [Prednisone], in series [6], the “ACE2 expression after anti-inflammatory drugs (in words)” value is reported as “no effect on ACE2 expression”. The CC50 in series [1] (CC50 Vero E6, absence of virus) was above 100 µM; in series [2] (absence of virus), above 100 µM.

Turning to `N#C[C@@H]1CCCN1C(=O)CNC12CC3CC(CC(O)(C3)C1)C2` [Vidagliptin, Vildagliptin], the CC50 in series [1] (CC50 Vero E6, absence of virus) was above 100 µM; in series [2] (absence of virus), above 100 µM.

As for `C[C@@H]1C[C@H]2[C@@H]3CCC4=CC(=O)C=C[C@]4(C)[C@@]3(F)[C@@H](O)C[C@]2(C)[C@@]1(O)C(=O)CO` [Dexamethasone], the “28-day mortality (in words)” value in series [7] (patients receiving invasive mechanical ventilation) is given as “decreased”. Moreover, the CC50 is above 100 µM in series [1] (CC50 Vero E6, absence of virus) and above 100 µM in series [2] (absence of virus).

As for `O=C1C[C@@H](c2ccc(O)c(O)c2)Oc2cc(O)cc(O)c21` [Eriodictyol], the CC50 in series [1] (CC50 Vero E6, absence of virus) is above 100 µM; in series [2] (absence of virus) it was above 100 µM.

With `CC1(C)[C@@H](O[C@H]2O[C@H](C(=O)O)[C@@H](O)[C@H](O)[C@H]2O[C@@H]2O[C@H](C(=O)O)[C@@H](O)[C@H](O)[C@H]2O)CC[C@]2(C)[C@H]3C(=O)C=C4[C@@H]5C[C@@](C)(C(=O)O)CC[C@]5(C)CC[C@@]4(C)[C@]3(C)CC[C@@H]12` [Glycyrrhizin], the CC50 in series [1] (CC50 Vero E6, absence of virus) is above 100 µM; in series [2] (absence of virus), above 100 µM.

Regarding `O=C1Nc2ccccc2/C1=C1/Nc2ccccc2C1=O` [Indirubin], the CC50 in series [1] (CC50 Vero E6) and in series [2] was above 100 µM throughout.

On to `N[C@@H](CC(=O)N1CCn2c(nnc2C(F)(F)F)C1)Cc1cc(F)c(F)cc1F` [Sitagliptin], for which the CC50 in series [1] (CC50 Vero E6, absence of virus) is above 100 µM; in series [2] (absence of virus), above 100 µM.

As for `Cc1cc(O)c2c(=O)c3c(O)cc(O)c4c5c(O)cc(O)c6c(=O)c7c(O)cc(C)c8c1c2c(c34)c(c78)c65` [Hypericin], the CC50 came to 4.8 µM in series [1] (CC50 Vero E6, absence of virus) and 0.14 µM in series [2] (absence of virus).

In the case of `C[C@H](O)[C@H](O)[C@H]1CNc2nc(N)[nH]c(=O)c2N1` [Tetrahydrobiopterin, Tetrahydrobiopterin dihydrochloride], the CC50 was above 100 µM in series [1] (CC50 Vero E6, absence of virus) and above 100 µM in series [2] (absence of virus).

`CCCCCCCCCC(=O)OCC(O)CO` (stereo not drawn) [Monocaprin]: the CC50 in series [3] and in series [4] was above 100 µM each time.

Regarding `O=C1CN(/N=C/c2ccc([N+](=O)[O-])o2)C(=O)N1` [Nitrofurantoin], the CC50 in series [1] (CC50 Vero E6) and in series [2] was above 100 µM throughout.

As to `CCCCCCCCCCCCOS(=O)(=O)[O-].[Na+]` [SLS, Sodium lauryl sulfate], the values for the CC50 in series [3] and in series [4] were around 83.2 µM and 87 µM, respectively.

As for `Cc1ccnc(NS(=O)(=O)c2ccc(N)cc2)n1` [Sulfamerazine], the CC50 in series [1] (CC50 Vero E6, absence of virus) was above 100 µM; in series [2] (absence of virus), above 100 µM.

As for `Cc1cccn2c(=O)c(-c3nnn[nH]3)cnc12` [Pemirolast, Pemirolast potassium], the CC50 in series [1] (CC50 Vero E6, absence of virus) is above 100 µM; in series [2] (absence of virus) it was above 100 µM.

On to `CN(C)C(=N)N=C(N)N` [Metformin], for which the CC50 was above 100 µM in series [1] (CC50 Vero E6, absence of virus) and above 100 µM in series [2] (absence of virus).

Regarding `O=c1cc(-c2ccc(O)c(O)c2)oc2cc(O)cc(O)c12` [Luteolin], the CC50 in series [1] (CC50 Vero E6, absence of virus) was above 100 µM; in series [2] (absence of virus), above 100 µM.

For `[H]/N=C(/N)N/C(=N/[H])NCCc1ccccc1` [Phenformin], the CC50 was above 100 µM in series [1] (CC50 Vero E6, absence of virus) and above 100 µM in series [2] (absence of virus).

Regarding IL-1β, the “ACE2 expression in enriched AT-II cells” value in series [6] is recorded as “decreased the fraction of AT-II cells expressing ACE2”.

With Ivermectin, the “proportion of PCR-positive patients (in words)” value in series [7] (seven days after treatment) is recorded as “failed to show a reduction”. In addition, the CC50 in series [3] is around 100 µM; in series [4], 20.2 µM. The “expression of cytokines in the HLT inflammation model (in words)” value in series [5] is recorded as “did not affect the expression of cytokines”.

B1: IL-10 (protein, UniProt P22301 19-178, looked up)
Interleukin-10: SPGQGTQSENSCTHFPGNLPNMLRDLRDAFSRVKTFFQMKDQLDNLLLKESLLEDFKGYLGCQALSEMIQFYLEEVMPQAENQDPDIKAHVNSLGENLKTLRLRLRRCHRFLPCENKSKAVEQVKNAFNKLQEKGIYKAMSEFDIFINYIEAYMTMKIRN
For B1, the “ACE2 expression in enriched AT-II cells” value in series [6] is given as “did not impact ACE2 protein production”.
